Like-named read-outs stand apart in the source and are kept apart here.
Test system: HCV subgenomic replicon (LucNeo#2 replicon cells)
Experiment: HCV replication inhibition in LucNeo#2 replicon cells, luciferase corrected by cell number (Alamar Blue)
Format: cell-based
Conditions: Hepatitis C virus, 96 h, read-out: Inhibition (%) at 1 uM
Description: LucNeo#2 replicon cells, which were the HCV subgenomic replicon cells used in Test Example 2, were used to examine HCV replication inhibitory-activity, from which signals were corrected by using cell number.
LucNeo#2 replicon cells cultured to confluency were recovered by trypsin treatment, and were spread on a collagen-coated plate at a density of 1000 cells/well. The cell culture was conducted in an incubator at 37° C., 5% CO2, with 10% FBS/DMEM (containing mixed solution of penicillin-streptomycin and a non-essential amino acid). On the following day or the evening after confirmation of cell adhesion, a compound of formula (I) as the Test compound was added to final concentration of 1.0 to 1.3 μM. At 4 days after the Test compound addition, Alamar Blue diluted 5-fold with PBS(−) was added in an amount of 1/10 for measurement of the fluorescence, to determine the cell count. After the Alamar Blue measurement, the luminescence from intracellular luciferase activity was determined by adding substrate solution in an amount of 5/11 using a Promega kit.
The Alamar Blue activity and luciferase activity were determined by subtracting the values measured for wells without cells. Next, the luciferase activity value×1000 was divided by the value from Alamar Blue measurement, then, the total activity was defined as the value calculated without the Test compound, and the percentages of inhibition by the Test compound was calculated in respect to total activity and listed in Table 4.

[1] = 1 uM, 4 days, luciferase activity per Alamar Blue value

SMILES	inhibition at 1 µM [1] [%]	inhibition at 1 µM [%]
COc1cc(/C=C2\CCN([C@@H](C)c3ccc(F)cc3)C2=O)ccc1-n1cnc(C)c1 [compound 56]	65.8	–
Cc1cncn1-c1ccc(/C=C/C(=O)NC2CCc3ccccc32)cc1C#N (centres unmarked) [compound 25]	83.5	–
O=Cc1cc(/C=C/C(=O)NC2CCc3ccccc32)ccc1-n1ccnc1 (centres unmarked) [compound 15]	73.3	–
COc1cc(/C=C2\CCCN([C@@H](C)c3ccc(F)cc3)C2=O)ccc1-n1cnc(C)c1 [compound 53]	–	30.9
COc1cc(/C=C/C(=O)NCc2ccccc2)ccc1-n1ccnc1 [compound 28]	70.5	–
COc1cc(/C=C/C(=O)NNCc2ccccc2)ccc1-n1ccnc1 [compound 45]	68.8	–
COCc1cc(/C=C/C(=O)NC2CCc3ccccc32)ccc1-n1ccnc1 (centres unmarked) [compound 46]	86.4	–
COc1cc(/C=C/C(=O)NCc2cccc(F)c2)ccc1-n1ccnc1 [compound 29]	62.8	–
COc1cc(/C=C2\CC[C@H]3COC[C@@H](c4cc(F)c(F)c(F)c4)N3C2=O)ccc1-n1cnc(C)c1 [compound 55]	66.8	–
Cc1ncn(-c2ccc(/C=C/C(=O)NC3CCc4ccccc43)cc2F)c1C (centres unmarked) [compound 35]	77.2	–
O=C(/C=C/c1ccc(-n2ccnc2)c(C(F)(F)F)c1)NC1CCc2ccccc21 (centres unmarked) [compound 20]	76.7	–
COc1cc(/C=C/C(=O)NC2CCCc3ccccc32)ccc1-n1ccnc1 (centres unmarked) [compound 33]	86.8	–
CC(C)Oc1cc(/C=C/C(=O)NC2CCc3ccccc32)ccc1-n1ccnc1 (centres unmarked) [compound 44]	64.6	–
COc1cc(/C=C2\NC(=S)N(Cc3ccccc3)C2=O)ccc1-n1cnc(C)c1 [compound 62]	68.2	–
COc1cc(C#CC(=O)NC(C)c2ccccc2)ccc1-n1cnc(C)c1 (centres unmarked) [compound 58]	64.6	–
COc1cc(/C=C/C(=O)NCCc2cccc(Cl)c2)ccc1-n1ccnc1 [compound 41]	71.8	–

SMILES	inhibition at 1 µM [1] [%]	inhibition at 1 µM [%]
COc1cc(/C=C/C(=O)N2CCC3(CC2)OCc2ccccc23)ccc1-n1cc(C)nc1C [compound 50]	52.3	–
COc1cc(/C=C2/C[C@H]3CCC[C@H](c4ccc(F)c(F)c4)N3C2=O)ccc1-n1cnc(C)c1 [compound 60]	50.5	–
COc1cc(/C=C/C(=O)NC2CCc3ccccc32)ccc1-n1cncc1Cl (centres unmarked) [compound 32]	71.8	–
COc1cc(/C=C\C(=O)NC2CCc3ccccc32)ccc1-n1ccnc1 (centres unmarked) [compound 30]	66.4	–
COc1cc(/C=C2\CCCN([C@@H](CO)c3ccc(F)cc3)C2=O)ccc1-n1cnc(C)c1 [compound 54]	14.2	–
COc1cc(/C=C/C(=O)N2CCC(n3c(=O)[nH]c4ccccc43)CC2)ccc1-n1ccnc1 [compound 52]	51.4	–
COc1cc(/C=C/C(=O)NCc2ccc(Cl)cc2)ccc1-n1ccnc1 [compound 13]	65.9	–
O=C(/C=C/c1ccc(-n2ccnc2)c(Cl)c1)NC1CCc2ccccc21 (centres unmarked) [compound 26]	75.5	–
COc1cc(/C=C/C(=O)NCc2ccc(C(F)(F)F)cc2)ccc1-n1ccnc1 [compound 39]	53.2	–
COc1cc(/C=C/C(=O)NCc2ccccc2C(F)(F)F)ccc1-n1ccnc1 [compound 37]	77.1	–
COc1cc(/C=C/C(=O)N(C)Cc2ccccc2)ccc1-n1ccnc1 [compound 22]	66.3	–
COc1cc(/C=C2\NC(=O)N(Cc3ccccc3)C2=O)ccc1-n1cnc(C)c1 [compound 59]	51.9	–
COc1cc(/C=C/C(=O)N(CCO)Cc2ccccc2)ccc1-n1cc(C)nc1C [compound 49]	71.6	–
COc1ccc(CNC(=O)/C=C/c2ccc(-n3ccnc3)c(F)c2)cc1 [compound 40]	59.4	–
Cc1cn(-c2ccc(/C=C/C(=O)NC3CCc4ccccc43)cc2Cl)cn1 (centres unmarked) [compound 19]	75.4	–
COc1cc(/C=C2\CCCN([C@H](C)c3ccc(C#N)s3)C2=O)ccc1-n1cnc(C)c1 [compound 63]	70.7	–

Reference: patent US20130095068A1, “AGENT FOR TREATING HCV INFECTION” (priority 2010, published 2013)
